The results in this text go back to patent US12662707B2, “MYC amplification drives resistance to pan-RAS inhibitors in pancreatic cancer” (The Trustees of Columbia University in the City of New York, priority 2024, dated 2026).

Test [1] has as its system human DUSP6 expression in Capan-1 CDX tumors. As to the kind of experiment: PK/PD in Capan-1 xenograft tumors (DUSP6 qRT-PCR). The class given is in vivo, mouse. As for the experimental part: Tumor-bearing animals were randomized and assigned into groups (n=3-10/group). Vehicle or RMC-7977 was administered via oral gavage daily at 10 mg/kg and animals were treated for 21-28 days. Studies were terminated early if tumor burden reached humane endpoint. Body weights were collected twice a week during the study. Means±s.e.m were plotted in the waterfall plots. For the single-dose pharmacokinetic/pharmacodynamic (PK/PD) study, mice were randomized and assigned into groups (n=3-6/dose/timepoint). A single dose of RMC-7977 was administered orally at 10 mg/kg, 25 mg/kg and 50 mg/kg. […]
Whole blood, tumor, colon and skin tissue concentrations of RMC-7977 were determined using liquid chromatography-tandem mass spectrometry (LC-MS/MS) methods. […] After thorough mixing and centrifugation, the supernatant was directly analyzed on a Sciex 6500+ triple quadrupole mass spectrometer equipped with an ACQUITY or Shimadzu UPLC system. […] RMC-7977 and IS (verapamil or terfenadine) were detected by positive electrospray ionization using multiple reaction monitoring (RMC-7977: m/z 865.4/706.4 or m/z 865.3/833.5; verapamil: m/z 455.2/164.9; terfenadine: m/z 472.3/436.4). The lower limit of quantification was 0.5 ng/mL or 2.0 ng/mL for blood, tumor, and other tissue. […]

In test [2] the test system is pERK, pS6, CC3, Cyclin A2 in KPC tumors. As to the kind of experiment: Pharmacodynamic IHC of KPC tumors (SD, 1 wk, EP). The format is in vivo, mouse. As for the experimental part:
Tumor formation in KPC mice was monitored by bi-weekly palpation. […] Treatments were performed every other day via oral gavage for 1 week. […] Following two consecutive ultrasounds, RMC-7977-treated animals were sacrificed either 4 (n=7) or 24 hours (n=4) after last dose and Vehicle-treated animals were sacrificed between 4-24 hours post last dose. Tissue was harvested and preserved as previously described (See Xenograft studies section). Additional group of KPC mice was also treated with a single dose of RMC-7977 (n=10) or Vehicle (n=3) and tissues were harvested at 4 or 24 hours post dose as previously described. […] RNA was extracted from at least 20 mg of indicated OCT or LN2 frozen tissue using an RNeasy Mini Kit (Qiagen, 74104) and a High Throughput Tissue grinder following the manufacturer's protocol. Reverse transcription was carried out using High-Capacity cDNA Reverse Transcription Kit (ABI, 4368814) according to the manufacturer's protocol. The cDNA product was used for qPCR analysis using TaqMan Gene Expression Master Mix (ABI, 4369016) or iTaq Universal SYBR Green Supermix (BioRad, 172-5125) depending on the primer. […] For qPCR, Ct value of MAPK signature genes and 18S were obtained for analysis. Generated Ct value were normalized to 18S, and then the mean relative mRNA expression levels of each sample were normalized to the average of the vehicle control group. Values were plotted as relative change in mRNA expression compared to Vehicle. Means±s.d. were shown. For primer sequences and more information. All tissues were fixed for up to 24 hours using 10% neutral buffered formalin and then moved to 70% ethanol for long term storage. All stainings were performed on 4-μm tissue sections. Sections were deparaffinized using a Leica XL ST5010 autostainer, after which slides were subjected to heat-activated epitope retrieval. […] Slides were further blocked in serum for 1 hour, and primary antibodies were added for overnight incubation at 4° C. […] Following incubation, ImmPACT DAB peroxidase (Vector Laboratories, SK-4100) was used to develop the stain and hematoxylin was used as nuclear counterstain. Stained slides were imaged at 40× magnification. Quantitative analyses of IHC images were performed using ImageJ.

As for `CCn1c(-c2cc(N3CCN(C4CC4)CC3)cnc2[C@H](C)OC)c2c3cc(ccc31)-c1csc(n1)C[C@H](NC(=O)[C@H]1[C@@H]3COC[C@@H]31)C(=O)N1CCC[C@H](N1)C(=O)OCC(C)(C)C2` [RMC-7977], the EC50 in test [1] (Mus musculus, CAPAN-1, read-out: EC50, inhibition of DUSP6 expression vs RMC-7977 concentration in tumors) was 142 nM. Also, the “duration of DUSP6 inhibition post-dose” value in test [1] (single dose 10, 25 or 50 mg/kg) was 24 to 48 h. The “evaluable EP KPC tumors with full inhibition of pERK expression” value in test [2] (6 of 7 tumors, 4 hours post final dose) came out at 86%. The “proliferation (Cyclin A2) in EP tumors” value in test [2] (EP tumors, 24 hours post-dosing) is “no longer deeply suppressed”. Also, the “apoptosis in KPC tumors” value in test [2] (SD, 1 Wk and EP samples, 4 hours after treatment) is given as “wave of apoptosis”. The “reduced proliferation (Cyclin A2) in KPC tumors” value in test [2] (after a week of treatment) was “pronounced and significant”. Moreover, in test [2] (single dose), the “proliferation (Cyclin A2) in KPC tumors” value is “trend towards reduced proliferation” and the “time to restoration of Ras/Mapk signaling” value was at most 24 h. Also, in test [2] (single dose, 4 hours after treatment), the “Ras/Mapk signaling (pERK IHC) in KPC tumors” value is “near-complete inhibition”. Moreover, the “pS6 (S235/S236 and S240/S244) in EP tumors” value in test [2] (the same 6 EP tumors) was “continued inhibition”.
